From patent US20140171393A1, “NOVEL AROMATIC THIO COMPOUNDS AS RECEPTOR MODULATORS” (Allergan, Inc., priority 2012, published 2014)
pEC50: −log10 of the molar value.

The compounds below were run against T1, human S1P1 receptor (Homo sapiens, UniProt P21453) (assay: GTP γ35S binding assay for S1P1 activity). Settings: membranes of cells stably expressing the S1P1 receptor, read-out: Activity potency: S1P1 receptor from GTP γ35S, S1P1 EC50.
T1 construct: expressed in transfected cells; membranes were used
T1 sequence (P21453 whole entry): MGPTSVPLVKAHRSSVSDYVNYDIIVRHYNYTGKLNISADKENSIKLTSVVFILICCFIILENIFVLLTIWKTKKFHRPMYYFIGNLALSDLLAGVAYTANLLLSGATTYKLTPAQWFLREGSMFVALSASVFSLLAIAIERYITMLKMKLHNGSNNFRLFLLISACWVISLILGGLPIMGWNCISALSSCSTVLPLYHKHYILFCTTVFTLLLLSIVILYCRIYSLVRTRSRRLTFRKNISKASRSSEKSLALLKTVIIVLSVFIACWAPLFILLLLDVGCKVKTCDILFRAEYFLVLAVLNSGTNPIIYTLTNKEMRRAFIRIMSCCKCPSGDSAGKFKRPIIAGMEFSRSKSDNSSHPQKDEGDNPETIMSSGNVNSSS
Type: biochemical
Protocol: Compounds were tested for S1P1 activity using the GTP γ^35S binding assay. These compounds may be assessed for their ability to activate or block activation of the human S1P1 receptor in cells stably expressing the S1P1 receptor.
GTP γ^35S binding was measured in the medium containing (mM) HEPES 25, pH 7.4, MgCl2 10, NaCl 100, dithitothreitol 0.5, digitonin 0.003%, 0.2 nM GTP γ^355, and 5 μg membrane protein in a volume of 150 μl. Test compounds were included in the concentration range from 0.08 to 5,000 nM unless indicated otherwise. Membranes were incubated with 100 μM 5′-adenylylimmidodiphosphate for 30 min, and subsequently with 10 μM GDP for 10 min on ice. Drug solutions and membrane were mixed, and then reactions were initiated by adding GTP γ^355 and continued for 30 min at 25° C. Reaction mixtures were filtered over Whatman GF/B filters under vacuum, and washed three times with 3 mL of ice-cold buffer (HEPES 25, pH7.4, MgCl2 10 and NaCl 100). Filters were dried and mixed with scintillant, and counted for ^35S activity using a 8-counter. Agonist-induced GTP γ^355 binding was obtained by subtracting that in the absence of agonist. Binding data were analyzed using a non-linear regression method. In case of antagonist assay, the reaction mixture contained 10 nM S1P in the presence of test antagonist at concentrations ranging from 0.08 to 5000 nM.

Cc1ccc(CCCCCSc2ccc(CNCCCP(=O)(O)O)cc2C)cc1 [Compound 23, {3-[(3-methyl-4-{[5-(4-methylphenyl)pentyl]thio}benzyl)amino]propyl}phosphonic acid] and Cc1cc(CNCCCP(=O)(O)O)ccc1SCCCCCc1ccc(F)cc1 [Compound 9, {3-[(4-{[5-(4-fluorophenyl)pentyl]thio}-3-methylbenzyl)amino]propyl}phosphonic acid] are within 0.2 log units of each other in pEC50: 7.38 for the first, 7.57 for the second.

Compared with O=P(O)(O)CCCNCc1ccc(SCCCCCc2ccccc2)cc1 [Compound 6, [3-({4-[(5-phenylpentyl)thio]benzyl}amino)propyl]phosphonic acid], O=P(O)(O)CCCNCc1ccc(SCCCCCc2ccccc2)c(F)c1 [Compound 21, [3-({3-fluoro-4-[(5-phenylpentyl)thio]benzyl}amino)propyl]phosphonic acid] is 1.04 log units higher in pEC50: 8.48 for the first, 9.52 for the second. The second is the more potent here.

Compared with CC(CCNCc1ccc(SCCCCCc2ccccc2)c(Cl)c1)P(=O)(O)O (stereo not drawn) [Compound 19, [3-({3-chloro-4-[(5-phenylpentyl)thio]benzyl}amino)-1-methylpropyl]phosphonic acid], O=P(O)(O)CCCNCc1ccc(SCCCCCc2ccccc2)c(Cl)c1 [Compound 5, [3-({3-chloro-4-[(5-phenylpentyl)thio]benzyl}amino)propyl]phosphonic acid] is 0.76 log units higher in pEC50: 8.06 for the first, 8.82 for the second. The second is the more potent here.

Compared with O=P(O)(O)CCCNCc1cc(F)c(SCCCCC2(c3ccccc3)CCCCC2)cc1F [Compound 50, {3-[(2,5-difluoro-4-{[4-(1-phenylcyclohexyl)butyl]thio}benzyl)amino]propyl}phosphonic acid], O=P(O)(O)CCCNCc1ccc(SCCCCC2(c3ccccc3)CCCCC2)c(Cl)c1 [Compound 164, {3-[(3-chloro-4-{[4-(1-phenylcyclohexyl)butyl]thio}benzyl)amino]propyl}phosphonic acid] is 0.35 log units lower in pEC50: 9.05 for the first, 8.70 for the second.

First: Cc1ccc(CCCCCSc2ccc(CNCCCP(=O)(O)O)cc2OC(F)(F)F)cc1 [Compound 16, (3-{[4-{[5-(4-methylphenyl)pentyl]thio}-3 (trifluoromethoxy)benzyl]amino}propyl)phosphonic acid]
Second: O=P(O)(O)CCCNCc1ccc(SCCCCCc2ccc(F)cc2)c(OC(F)(F)F)c1 [Compound 15, (3-{[4-{[5-(4-fluorophenyl)pentyl]thio}-3-(trifluoromethoxy)benzyl]amino}propyl)phosphonic acid]
The pEC50 of the first is 0.34 log units lower: 8.46 for the first, 8.80 for the second. The second is the more potent here.

O=P(O)(O)CCCNCc1ccc(SCCCCCc2ccc(F)cc2)c(C(F)(F)F)c1 [Compound 10, (3-{[4-{[5-(4-fluorophenyl)pentyl]thio}-3-(trifluoromethyl)benzyl]amino}propyl)phosphonic acid] and O=P(O)(O)CCCNCc1ccc(SCCCCCc2ccc(Cl)cc2)c(C(F)(F)F)c1 [Compound 13, (3-{[4-{[5-(4-chlorophenyl)pentyl]thio}-3-(trifluoromethyl)benzyl]amino}propyl)phosphonic acid] are within 0.2 log units of each other in pEC50: 8.27 for the first, 8.34 for the second.

O=P(O)(O)CCCNCc1ccc(SCCCCCc2ccccc2)cc1C(F)(F)F [Compound 3, [3-({4-[(5-phenylpentyl)thio]-2-(trifluoromethyl)benzyl}amino)propyl]phosphonic acid] and O=P(O)(O)CCCNCc1ccc(SCCCCCc2ccc(F)cc2)cc1C(F)(F)F [Compound 24, (3-{[4-{[5-(4-fluorophenyl)pentyl]thio}-2-(trifluoromethyl)benzyl]amino}propyl)phosphonic acid] are within 0.2 log units of each other in pEC50: 7.87 for the first, 8.06 for the second.

Compared with CC(C)(CCCCSc1ccc(CNCCCP(=O)(O)O)cc1Br)c1ccccc1 [Compound 165, [3-({3-bromo-4-[(5-methyl-5-phenylhexyl)thio]benzyl}amino)propyl]phosphonic acid], O=P(O)(O)CCCNCc1ccc(SCCCCCc2ccccc2)c(Br)c1 [Compound-1, [3-({3-bromo-4-[(5-phenylpentyl)thio]benzyl}amino)propyl]phosphonic acid] is 0.86 log units higher in pEC50: 7.88 for the first, 8.74 for the second.

Going from COc1ccc(CCCCCSc2ccc(CNCCCP(=O)(O)O)cc2OC(F)(F)F)cc1 [Compound 163, (3-{[4-{[5-(4-methoxyphenyl)pentyl]thio}-3-(trifluoromethoxy)benzyl]amino}propyl)phosphonic acid] to O=P(O)(O)CCCNCc1ccc(SCCCCCc2ccc(Cl)cc2)c(OC(F)(F)F)c1 [Compound 14, (3-{[4-{[5-(4-chlorophenyl)pentyl]thio}-3-(trifluoromethoxy)benzyl]amino}propyl)phosphonic acid], the pEC50 rises from 7.17 to 8.10 (0.93 log units).

First: N#Cc1cc(CNCCCP(=O)(O)O)ccc1SCCCCCc1ccc(F)cc1 [Compound 22, {3-[(3-cyano-4-{[5-(4-fluorophenyl)pentyl]thio}benzyl)amino]propyl}phosphonic acid]
Second: N#Cc1cc(CNCCCP(=O)(O)O)ccc1SCCCCCc1ccccc1 [Compound 8, [3-({3-cyano-4-[(5-phenylpentyl)thio]benzyl}amino)propyl]phosphonic acid]
The pEC50 of the first is 0.41 log units higher: 8.62 for the first, 8.21 for the second. The first is the more potent here.

Going from O=P(O)(O)C(F)(F)CCNCc1ccc(SCCCCCc2ccccc2)c(Cl)c1 [Compound 17, [3-({3-chloro-4-[(5-phenylpentyl)thio]benzyl}amino)-1,1-difluoropropyl]phosphonic acid] to O=P(O)(O)C(F)(F)CCNCc1ccc(SCCCCCc2ccccc2)c(OC(F)(F)F)c1 [Compound 18, [1,1-difluoro-3-({4-[(5-phenylpentyl)thio]-3-(trifluoromethoxy)benzyl}amino)propyl]phosphonic acid], the pEC50 falls from 8.32 to 7.87 (0.45 log units).

First: COc1ccc(CCCCCSc2ccc(CNCCCP(=O)(O)O)cc2C(F)(F)F)cc1 [Compound 11, (3-{[4-{[5-(4-methoxyphenyl)pentyl]thio}-3-(trifluoromethyl)benzyl]amino}propyl)phosphonic acid]
Second: O=P(O)(O)CCCNCc1ccc(SCCCCCc2ccccc2)c(OC(F)(F)F)c1 [Compound 7, [3-({4-[(5-phenylpentyl)thio]-3-(trifluoromethoxy)benzyl}amino)propyl]phosphonic acid]
The pEC50 of the first is 2.00 log units lower: 7.22 for the first, 9.22 for the second. The second is the more potent here.

Cc1cc(CNCCCP(=O)(O)O)ccc1SCCCCCc1ccccc1 [Compound 20, [3-({3-methyl-4-[(5-phenylpentyl)thio]benzyl}amino)propyl]phosphonic acid] and O=P(O)(O)CCCNCc1ccc(SCCCCCc2ccccc2)cc1Cl [Compound 4, [3-({2-chloro-4-[(5-phenylpentyl)thio]benzyl}amino)propyl]phosphonic acid] are within 0.2 log units of each other in pEC50: 8.49 for the first, 8.66 for the second.

These compounds were tested on blood lymphocytes (assay: Lymphopenia assay in mice). Settings: 10 mg/Kg subcutaneously, female C57BL6 mice, after 5 hours, FIG. 1.
Type: in vivo
Protocol: Test drugs are prepared in a solution containing 3% (w/v) 2-hydroxy propyl β-cyclodextrin (HPBCD) and 1% DMSO to a final concentration of 1 mg/ml, and subcutaneously injected to female C57BL6 mice (CHARLES RIVERS) weighing 20-25 g at the dose of 0.5 to 10 mg/Kg. Blood samples are obtained by puncturing the submandibular skin with a Goldenrod animal lancet at 5, 24, 48, 72, and 96 hrs post drug application. Blood is collected into microvettes (SARSTEDT) containing EDTA tripotassium salt. Lymphocytes in blood samples are counted using a HEMAVET Multispecies Hematology System, HEMAVET HV950FS (Drew Scientific Inc.).
A lymphopenia assay in mice; as previously described, was employed to measure the in vivo blood lymphocyte depletion after dosing with the test compound: [3-({3-bromo-4-[(5-phenylpentyl)thio]benzyl}amino)propyl]phosphonic acid Compound-1. This S1P1 modulator, [3-({3-bromo-4-[(5-phenylpentyl)thio]benzyl}amino)propyl]phosphonic acid Compound-1 is useful for S1P-related diseases and exemplified by the lymphopenia in vivo response. […] Lymphocytes in blood samples were counted using a HEMAVET Multispecies Hematology System, HEMAVET HV950FS (Drew Scientific Inc.). […]

For O=P(O)(O)CCCNCc1ccc(SCCCCCc2ccccc2)c(Br)c1 [Compound-1, [3-({3-bromo-4-[(5-phenylpentyl)thio]benzyl}amino)propyl]phosphonic acid], the “lymphocyte count (number of lymphocytes in blood)” value was < 1 10^3/μL blood.
